Measured values: the NIST ThermoML archive (doi:10.1021/je900283v)
Numbers after ± are expanded uncertainties.

Key:
[1] = Crystal; DTA
[2] = Molar enthalpy of transition or fusion; details: Crystal; DSC

Normal melting temperature [1]: 194.00 ± 1 °C | Molar enthalpy of transition or fusion [2]: 53.4 ± 1.4 kJ/mol
Compound: CC[C@@]1(O)C(=O)OCc2c1cc1n(c2=O)Cc2cc3cc(O)ccc3nc2-1
